Patent US8501783B2, “Conformationally restricted urea inhibitors of soluble epoxide hydrolase” (The Regents of the University of California, priority 2006, dated 2013)

Tested on: not listed separately
Assay: Pharmacokinetic screening in dogs, oral administration, plasma LC-MS/MS
Details: dog, plasma, po, 0.3 mg/kg

| Molecule | AUC |
| --- | --- |
| CC(=O)N1CCC(NC(=O)CC23CC4CC(CC(C4)C2)C3)CC1 [Compound 1642] | 96.7 nM·h |
| CC(=O)N1CCC(NC(=O)NC2CCCCCC2)CC1 [Compound 1645, 1-(1-Acetyl-piperidin-4-yl)-3-cycloheptyl-urea] | 3680 nM·h |
| CS(=O)(=O)N1CCC(NC(=O)NC23CC4CC(CC(C4)C2)C3)CC1 [Compound 1701, 1-Adamantan-1-yl-3-(1-methanesulfonyl-piperidin-4-yl)-urea] | 81.7 nM·h |
| COC(=O)N1CCC(NC(=O)NC23CC4CC(CC(C4)C2)C3)CC1 [Compound 1702, 4-(3-Adamantan-1-yl-ureido)-piperidine-1-carboxylic acid methyl ester] | 90 nM·h |

Target: human sEH (Homo sapiens (Human), UniProt P34913)
Assay: Inhibition of human soluble epoxide hydrolase (IC50; one of three substrate methods);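 note: enzyme expressed in baculovirus and affinity-purified, assays run in triplicate, with substrate and read-out differing among the three methods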
Format: biochemical
Details: not given

human sEH, sequence (P34913 whole entry): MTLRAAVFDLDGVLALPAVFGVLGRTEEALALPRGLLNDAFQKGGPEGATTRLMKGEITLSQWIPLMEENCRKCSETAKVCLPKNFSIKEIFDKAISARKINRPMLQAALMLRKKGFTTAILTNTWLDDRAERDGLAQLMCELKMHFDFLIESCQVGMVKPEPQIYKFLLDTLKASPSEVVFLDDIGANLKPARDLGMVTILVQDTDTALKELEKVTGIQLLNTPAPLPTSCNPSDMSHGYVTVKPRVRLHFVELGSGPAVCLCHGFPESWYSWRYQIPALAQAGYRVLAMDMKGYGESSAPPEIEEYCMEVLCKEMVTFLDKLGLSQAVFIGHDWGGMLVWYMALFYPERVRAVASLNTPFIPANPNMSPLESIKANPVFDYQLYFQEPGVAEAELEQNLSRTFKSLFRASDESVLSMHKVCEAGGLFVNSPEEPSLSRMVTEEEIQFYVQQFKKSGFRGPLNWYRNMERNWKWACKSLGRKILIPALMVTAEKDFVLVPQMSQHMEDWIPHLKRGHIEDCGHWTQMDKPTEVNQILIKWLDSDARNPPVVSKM

| Molecule | IC50 |
| --- | --- |
| O=C(NC1CCN(C(=O)c2cccc(C(=O)O)c2)CC1)NC12CC3CC(CC(C3)C1)C2 [Compound 1505, 3-[4-(3-Adamantan-1-yl-ureido)-piperidine-1-carbonyl]-benzoic acid] | 0.0101 µM |
| O=C(NC1CCN(C(=O)c2ccccc2C(=O)O)CC1)NC12CC3CC(CC(C3)C1)C2 [Compound 1507, 2-[4-(3-Adamantan-1-yl-ureido)-piperidine-1-carbonyl]-benzoic acid] | 0.161 µM |
| O=C(NC1CCN(C(=O)c2ccc(C(=O)O)cc2)CC1)NC12CC3CC(CC(C3)C1)C2 [Compound 1523, 4-[4-(3-Adamantan-1-yl-ureido)-piperidine-1-carbonyl]-benzoic acid] | 0.0033 µM |
| CC(=O)N1CCC(NC(=O)NC2CCCCCC2)CC1 [Compound 1645, 1-(1-Acetyl-piperidin-4-yl)-3-cycloheptyl-urea] | 0.0276 µM |

Same assay, conditions: recombinant human sEH

| Molecule | IC50 |
| --- | --- |
| O=C(O)CCC(=O)N1CCC(CNC(=O)NC23CC4CC(CC(C4)C2)C3)CC1 [Compound 1502, 4-{4-[(3-Adamantan-1-yl-ureido)-methyl]-piperidin-1-yl}-4-oxo-butanoic acid] | 0.175 µM |
| O=C(O)CCC(=O)N1CCC(NC(=O)NC23CC4CC(CC(C4)C2)C3)CC1 [Compound 1503, 4-[4-(3-Adamantan-1-yl-ureido)-piperidin-1-yl]-4-oxo-butanoic acid] | 0.255 µM |
| O=C(NCC1CCN(C(=O)c2cccc(C(=O)O)c2)CC1)NC12CC3CC(CC(C3)C1)C2 [Compound 1504, 3-{4-[(3-Adamantan-1-yl-ureido)-methyl]-piperidine-1-carbonyl}-benzoic acid] | 0.0436 µM |
| O=C(NCC1CCN(C(=O)c2ccccc2C(=O)O)CC1)NC12CC3CC(CC(C3)C1)C2 [Compound 1506, 2-{4-[(3-Adamantan-1-yl-ureido)-methyl]-piperidine-1-carbonyl}-benzoic acid] | 0.407 µM |
| O=C(NCC1CCN(C(=O)c2ccc(C(=O)O)cc2)CC1)NC12CC3CC(CC(C3)C1)C2 [Compound 1522, 4-{4-[(3-Adamantan-1-yl-ureido)-methyl]-piperidine-1-carbonyl}-benzoic acid] | 0.0118 µM |
| O=C(NC1CCCCC1)NC12CN3CN(CN(C3)C1)C2 [Compound 1549, 1-Cyclohexyl-3-(1,3,5-triaza-tricyclo[3.3.1.1^3.7]dec-7-yl)-urea] | 13.6 µM |
| CCCCCCCCCCCCNC(=O)NC1CCNCC1 [Compound 1550, 1-Dodecyl-3-piperidin-4-yl-urea] | 0.0425 µM |
| CC(C)(C)OC(=O)N1CCC(NC(=O)NC2CCCCC2)CC1 [Compound 1551, 4-(3-Cyclohexyl-ureido)-piperidine-1-carboxylic acid tert-butyl ester] | 0.0043 µM |
| CCCCCCCCCCCCNC(=O)Nc1ccc2[nH]ccc2c1 [Compound 1553, 1-Dodecyl-3-(1H-indol-5-yl)-urea] | 0.639 µM |
| O=C(Nc1ccc2[nH]ccc2c1)NC1CCCCC1 [Compound 1554, 1-Cyclohexyl-3-(1H-indol-5-yl)-urea] | 0.087 µM |
| O=C(NCC1CCN(C(=O)C(F)(F)F)CC1)NC12CC3CC(CC(C3)C1)C2 [Compound 1556] | 0.0018 µM |
| O=C(NCc1ccncc1)Oc1cccc(-c2ccccc2)c1 [Compound 1557, Pyridin-4 ylmethyl-carbamic acid biphenyl-3-yl ester] | 11.5 µM |
| Cc1c(COC(=O)NCc2ccncc2)cccc1-c1ccccc1 [Compound 1558, Pyridin-4-ylmethyl-carbamic acid 2-methyl-biphenyl-3-ylmethyl ester] | 1.33 µM |
| O=C(NCc1cccnc1)Oc1cccc(-c2ccccc2)c1 [Compound 1559, Pyridin-3-ylmethyl-carbamic acid biphenyl-3-yl ester] | 23 µM |
| Cc1c(COC(=O)NCc2cccnc2)cccc1-c1ccccc1 [Compound 1560, Pyridin-3-ylmethyl-carbamic acid 2-methyl-biphenyl-3-ylmethyl ester] | 4.41 µM |
| O=C(Oc1cccc(-c2ccccc2)c1)N1CCOCC1 [Compound 1561, Morpholine-4-carboxylic acid biphenyl-3-yl ester] | 65.3 µM |

| Molecule | IC50 |
| --- | --- |
| CCCCCCCCCCCCNC(=O)Nc1ccc2[nH]cnc2c1 [Compound 1568, 1-(1H-Benzoimidazol-5-yl)-3-dodecyl-urea] | 5.02 µM |
| O=C(Nc1ccc2[nH]cnc2c1)NC1CCCCC1 [Compound 1569, 1-(1H-Benzoimidazol-5-yl)-3-cyclohexyl-urea] | 0.457 µM |
| O=C(Nc1ccc(OC(F)(F)F)cc1)NC1CCNCC1 [Compound 1570, 1-Piperidin-4-yl-3-(4-trifluoromethoxy-phenyl)-urea] | 2.32 µM |
| O=C(Nc1ccc(OC(F)(F)F)cc1)NC1CCN(C(=O)C(F)(F)F)CC1 [Compound 1591, 1-[1-(2,2,2-Trifluoro-acetyl)-piperidin-4-yl]-3-(4-trifluoromethoxy-phenyl)-urea] | 0.0004 µM |
| O=C(NC1CCCCC1)NC1CCNCC1 [Compound 1602] | 0.562 µM |
| O=C(NC1CCNCC1)NC1CCNCC1 [Compound 1604, 1,3-Di-piperidin-4-yl-urea] | 100 µM |
| O=C(NC1CCN(C(=O)c2ccccc2)CC1)NC1CCN(C(=O)c2ccccc2)CC1 [Compound 1605, 1,3-Bis-(1-benzoyl-piperidin-4-yl)urea] | 0.0048 µM |
| CC(=O)N1CCC(NC(=O)C23CC4CC(CC(C4)C2)C3)CC1 [Compound 1641, Adamantane-1-carboxylic acid (1-acetyl-piperidin-4-yl)-amide] | 12.6 µM |
| CC(=O)N1CCC(NC(=O)CC23CC4CC(CC(C4)C2)C3)CC1 [Compound 1642] | 0.275 µM |
| O=C(N1CCC(NC(=O)C23CC4CC(CC(C4)C2)C3)CC1)C(F)(F)F [Compound 1643, Adamantane-1-carboxylic acid [1-(2,2,2-trifluoro-acetyl)-piperidin-4-yl]-amide] | 4.21 µM |
| O=C(CC12CC3CC(CC(C3)C1)C2)NC1CCN(C(=O)C(F)(F)F)CC1 [Compound 1644] | 0.0283 µM |
| CS(=O)(=O)N1CCC(NC(=O)NC23CC4CC(CC(C4)C2)C3)CC1 [Compound 1701, 1-Adamantan-1-yl-3-(1-methanesulfonyl-piperidin-4-yl)-urea] | 0.0014 µM |
| COC(=O)N1CCC(NC(=O)NC23CC4CC(CC(C4)C2)C3)CC1 [Compound 1702, 4-(3-Adamantan-1-yl-ureido)-piperidine-1-carboxylic acid methyl ester] | 0.0009 µM |
| CN(C)c1cccc2c(S(=O)(=O)N3CCC(NC(=O)Nc4ccc(OC(F)(F)F)cc4)CC3)cccc12 [Compound 1710, 1-[1-(5-dimethylamino-naphthalene-1-sulfonyl)-piperidin-4-yl]-3-(4-trifluoromethoxy-phenyl)-urea] | 0.0008 µM |
| Cc1ccc(S(=O)(=O)N2CCC(NC(=O)Nc3ccc(OC(F)(F)F)cc3)CC2)cc1 [Compound 1711, 1-[1-(Toluene-4-sulfonyl)-piperidin-4-yl]-3-(4-trifluoromethoxy-phenyl)-urea] | 0.0004 µM |
| Morpholine-4-carboxylic acid 2-methyl-biphenyl-3-ylmethyl ester [Compound 1562] | 12 µM |
